According to ChEMBL document CHEMBL1133329, “N-acyl phenylalanine analogues as potent small molecule VLA-4 antagonists” (Bioorg Med Chem Lett, 2000):
pIC50: −log10 of the molar value.

Legend:
Type in all cases: cell-based
Integrin alpha-4/beta-1 [1] = molecular target: T1, Integrin alpha-4/beta-1 (Homo sapiens, UniProt P05556+P13612); assay: Antagonistic activity against VLA-4 (derived from ramos cells) binding to recombinant human VCAM
Integrin alpha-4/beta-1 [2] = molecular target: T1, Integrin alpha-4/beta-1; assay: Inhibition of recombinant human VCAM binding to VLA-4 of Ramos cells at 10 uM
Integrin alpha-4/beta-1 [3] = molecular target: T1, Integrin alpha-4/beta-1; assay: Inhibition of CS-1 peptide binding to VLA-4 expressed in Ramos cells

T1 sequence (P05556 whole entry): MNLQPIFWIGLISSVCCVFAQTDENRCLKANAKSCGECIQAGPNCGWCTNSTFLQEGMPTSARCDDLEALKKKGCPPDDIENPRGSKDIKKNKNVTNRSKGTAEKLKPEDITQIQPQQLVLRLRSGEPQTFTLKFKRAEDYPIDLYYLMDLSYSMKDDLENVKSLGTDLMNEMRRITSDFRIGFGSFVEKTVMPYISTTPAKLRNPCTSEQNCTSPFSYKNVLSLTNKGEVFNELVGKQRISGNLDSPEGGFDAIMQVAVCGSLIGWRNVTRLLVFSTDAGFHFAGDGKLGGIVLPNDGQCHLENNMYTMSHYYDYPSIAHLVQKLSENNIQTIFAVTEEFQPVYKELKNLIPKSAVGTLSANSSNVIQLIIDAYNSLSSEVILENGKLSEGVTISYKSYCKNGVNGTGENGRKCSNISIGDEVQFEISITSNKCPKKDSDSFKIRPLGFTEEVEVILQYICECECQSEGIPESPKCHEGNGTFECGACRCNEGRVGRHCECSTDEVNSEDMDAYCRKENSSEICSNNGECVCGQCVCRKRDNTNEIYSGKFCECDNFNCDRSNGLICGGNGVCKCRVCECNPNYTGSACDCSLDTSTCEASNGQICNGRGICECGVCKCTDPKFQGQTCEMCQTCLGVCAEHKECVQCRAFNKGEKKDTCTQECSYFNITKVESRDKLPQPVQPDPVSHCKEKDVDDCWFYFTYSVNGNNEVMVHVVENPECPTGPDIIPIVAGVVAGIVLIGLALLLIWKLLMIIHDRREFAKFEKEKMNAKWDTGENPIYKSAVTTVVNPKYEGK
T1 sequence (P13612 whole entry): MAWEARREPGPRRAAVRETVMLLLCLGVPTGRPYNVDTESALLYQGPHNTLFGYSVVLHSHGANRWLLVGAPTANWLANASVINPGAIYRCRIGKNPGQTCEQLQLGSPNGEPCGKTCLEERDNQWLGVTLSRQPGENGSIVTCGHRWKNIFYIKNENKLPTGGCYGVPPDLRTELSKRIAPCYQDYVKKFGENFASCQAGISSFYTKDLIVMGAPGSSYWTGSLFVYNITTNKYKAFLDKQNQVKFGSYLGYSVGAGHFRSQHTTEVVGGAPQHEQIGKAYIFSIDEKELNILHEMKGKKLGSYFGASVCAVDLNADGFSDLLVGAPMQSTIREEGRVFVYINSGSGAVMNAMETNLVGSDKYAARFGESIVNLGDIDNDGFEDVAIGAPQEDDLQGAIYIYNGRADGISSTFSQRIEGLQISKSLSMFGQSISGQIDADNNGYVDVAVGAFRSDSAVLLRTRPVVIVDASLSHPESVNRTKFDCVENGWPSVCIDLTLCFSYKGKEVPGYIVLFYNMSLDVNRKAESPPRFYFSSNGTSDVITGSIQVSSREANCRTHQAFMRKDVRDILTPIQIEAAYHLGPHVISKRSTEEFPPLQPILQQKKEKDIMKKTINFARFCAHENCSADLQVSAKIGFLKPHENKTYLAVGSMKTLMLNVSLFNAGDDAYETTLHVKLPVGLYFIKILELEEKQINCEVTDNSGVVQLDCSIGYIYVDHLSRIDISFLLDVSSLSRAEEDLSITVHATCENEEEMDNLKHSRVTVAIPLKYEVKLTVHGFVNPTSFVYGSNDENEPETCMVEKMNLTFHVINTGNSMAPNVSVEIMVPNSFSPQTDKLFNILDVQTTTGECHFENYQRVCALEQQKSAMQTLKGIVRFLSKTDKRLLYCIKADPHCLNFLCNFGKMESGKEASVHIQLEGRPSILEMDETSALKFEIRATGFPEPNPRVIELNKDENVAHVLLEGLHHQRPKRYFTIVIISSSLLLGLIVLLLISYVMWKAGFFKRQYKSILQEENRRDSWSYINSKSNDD

Structure (SMILES)	pIC50 (Integrin alpha-4/beta-1 [1])	inhibition (Integrin alpha-4/beta-1 [2]) [%]	pIC50 (Integrin alpha-4/beta-1 [3])
CCCCCOc1ccc(C[C@H](NC(=O)C2CC(=O)N(C)C2c2cccnc2)C(=O)O)cc1 (stereo in doubt; 3) [listing 1 of 2 here]	5.77		
CCCCCOc1ccc(C[C@H](NC(=O)C2CC(=O)N(C)C2c2cccnc2)C(=O)O)cc1 (stereo in doubt; 22) [listing 1 of 2 here]	6.06		
CO/N=C(\C(=O)N[C@@H](Cc1ccc(C#CCCCC(=O)OC)cc1)C(=O)O)c1csc(N)n1	6.87	99	
CC1(C(=O)N[C@@H](Cc2ccc(C#CCCCC(=O)O)cc2)C(=O)O)CC1(Cl)Cl (stereo not given in full)	6.73	80	
CCCCCOc1ccc(C[C@H](NC(=O)C2(C)CC2(Cl)Cl)C(=O)O)cc1 (stereo not given in full)	6.68		
CCCCCOc1ccc(C[C@H](NC(=O)C2CC(=O)N(C)C2c2cccnc2)C(=O)O)cc1 (stereo in doubt; 22) [listing 2 of 2 here]		90	
CCCCCCc1ccc(C[C@H](NC(=O)Cc2cccc(NC(=N)N)c2)C(=O)O)cc1	5.15		
CCCCCOc1ccc(C[C@H](NC(=O)C2CC(=O)N(C)C2c2cccnc2)C(=O)O)cc1 (stereo in doubt; 3) [listing 2 of 2 here]		81	
CCCCCOc1ccc(C[C@H](NC(=O)[C@@H]2CCC(=O)N2Cc2ccccc2)C(=O)O)cc1	7.34	97	
CCCCCOc1ccc(C[C@H](NC(=O)c2c3ccccc3nc3ccccc23)C(=O)O)cc1	6.23	92	
CCCCCOc1ccc(C[C@H](NC(=O)c2c(C)cc(C)cc2C)C(=O)O)cc1	6.61		
CCCCCOc1ccc(C[C@H](NC(=O)/C(=N/OC)c2csc(N)n2)C(=O)O)cc1	7.22		
O=C(O)CCCC#Cc1ccc(C[C@H](NC(=O)[C@@H]2CCC(=O)N2Cc2ccccc2)C(=O)O)cc1	7.70		
CCCCCOc1ccc(C[C@H](NC(=O)Cc2cccc(N)c2)C(=O)O)cc1	5.35		
COC(=O)CCCC#Cc1ccc(C[C@H](NC(=O)c2ccc(S(N)(=O)=O)cc2)C(=O)O)cc1	6.50	94	
CCCCCOc1ccc(C[C@H](NC(=O)[C@@H]2CSCN2C(C)=O)C(=O)O)cc1	6.95		5.38
CCCCCOc1ccc(C[C@H](NC(=O)c2cccnc2)C(=O)O)cc1	5.42	87	
CC(C)(C)OC(=O)N1CCC[C@H](CC(=O)N[C@@H](Cc2ccc(C#CCCCC(=O)O)cc2)C(=O)O)C1	6.19		
